This is an account of results in ChEMBL document CHEMBL1201862, “PubChem BioAssay data set” (2004).

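Five concentrations, 48 hours, 96-well plates. GI50 marks 50% less growth.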 Activity calls are given as the source filed them. No stated cut-off is given here; in the data, active = GI50 up to about 1.1 µM and inactive = higher. Some results are limits rather than exact numbers.

Among the test systems are LOX IMVI; Hs-578T; MDA-MB-231; NCI-H23; BT-549; MDA-N; IGROV-1; A498; NCI/ADR-RES; OVCAR-5; MCF7; UACC-257; T47D; RXF 393; EKVX; CCRF-CEM; SR; U-251; HOP-62.
Common to all, as to assay: inhibition of tumour cell growth, NCI panel, 48 h

Regarding `CC(C)CCC1(CCN)C(=O)NC(=O)NC1=O`, the GI50 in the experiment on LOX IMVI, in the experiment with Hs-578T, in the experiment on MDA-MB-231, in the experiment with NCI-H23, with BT-549 and in the experiment on MDA-N was > 100 µM (inactive) each time. The GI50 with IGROV-1, with A498, in the experiment on NCI/ADR-RES, in the experiment with OVCAR-5, in the experiment with MCF7 and in the experiment on UACC-257 was > 100 µM (inactive) in each case. The GI50 with T47D is > 100 µM (inactive); in the experiment with RXF 393, > 100 µM (inactive); in the experiment with EKVX it was > 100 µM (inactive); with CCRF-CEM, 19.6 µM (inactive); in the experiment on SR, 6.68 µM (inactive); with U-251, > 100 µM (inactive). Besides, the GI50 in the experiment on HOP-62 is > 100 µM (inactive).
On to `COc1ccc(-c2cc(-c3ccc(Nc4ccnc5cc(Cl)ccc45)cc3)[nH]c(=O)c2C#N)c2ccccc12`, for which the GI50 is 1.36 µM (inactive) with LOX IMVI; 2.62 µM (inactive) with Hs-578T; 3.29 µM (inactive) with MDA-MB-231; 20.3 µM (inactive) in the experiment with NCI-H23; 16.4 µM (inactive) in the experiment on BT-549; 2.01 µM (inactive) in the experiment on MDA-N. Besides, the GI50 is 5.26 µM (inactive) in the experiment with IGROV-1; 23.3 µM (inactive) in the experiment with A498; > 100 µM (inactive) in the experiment with NCI/ADR-RES; 41.3 µM (inactive) in the experiment with OVCAR-5; 1.92 µM (inactive) in the experiment on MCF7; 24.9 µM (inactive) with UACC-257. Also, the GI50 in the experiment with T47D is 1.88 µM (inactive); in the experiment with RXF 393, 5.05 µM (inactive); in the experiment with EKVX it was > 77.1 µM (inactive); in the experiment with CCRF-CEM, 1.09 µM (active); in the experiment on SR it was 0.413 µM (active); in the experiment on U-251, 1.87 µM (inactive). In the experiment on HOP-62, the GI50 was 14.5 µM (inactive).
As to `O=C1OC(OC/C(Br)=C(\Br)COC2OC(=O)C(Cl)=C2Cl)C(Cl)=C1Cl` (stereo not given), the GI50 in the experiment on LOX IMVI is 2.58 µM (inactive); in the experiment with Hs-578T it was 5.57 µM (inactive); in the experiment on MDA-MB-231, 4.74 µM (inactive); in the experiment on NCI-H23, 3.18 µM (inactive); in the experiment with BT-549, 2.67 µM (inactive); with MDA-N it was 3.65 µM (inactive). Moreover, the GI50 was 12.3 µM (inactive) with IGROV-1; 19.5 µM (inactive) in the experiment on A498; 4.92 µM (inactive) in the experiment with NCI/ADR-RES; 12.9 µM (inactive) in the experiment on OVCAR-5; 4.41 µM (inactive) in the experiment on MCF7; 9.68 µM (inactive) with UACC-257. The GI50 is 12.6 µM (inactive) in the experiment on T47D; 2.39 µM (inactive) with RXF 393; 9.57 µM (inactive) with EKVX; 0.659 µM (active) with CCRF-CEM; 0.9 µM (active) with SR; 4.58 µM (inactive) with U-251. The GI50 in the experiment with HOP-62 is 14.5 µM (inactive).
For the compound `Cc1cc(C)c2c(O)cc(-c3cccc(F)c3)nc2n1`, the GI50 in the experiment with LOX IMVI is 0.191 µM (active); in the experiment on Hs-578T, 0.0614 µM (active); in the experiment on MDA-MB-231 it was 0.42 µM (active); with NCI-H23 it was 0.294 µM (active); in the experiment with BT-549, 0.175 µM (active); with MDA-N, 0.0116 µM (active). Besides, the GI50 with IGROV-1 is 0.0766 µM (active); with A498 it was 0.274 µM (active); with NCI/ADR-RES, 0.0422 µM (active); in the experiment with OVCAR-5, 0.399 µM (active); with MCF7 it was 0.0308 µM (active); with UACC-257, 10.4 µM (inactive). In addition, the GI50 in the experiment with T47D is 0.232 µM (active); with RXF 393 it was 0.163 µM (active); in the experiment with EKVX it was 0.45 µM (active); in the experiment on CCRF-CEM, 0.172 µM (active); in the experiment with SR it was 0.0169 µM (active); in the experiment on U-251 it was 0.0724 µM (active). Further, the GI50 in the experiment on HOP-62 is 0.158 µM (active).
In the case of `CCCCCCCCCCCCN(CC(O)C(O)C(OC1OC(CO)C(O)C(O)C1O)C(O)CO)C(=O)CCCCCCCCCCC` (stereo not given), the GI50 with LOX IMVI was 21.3 µM (inactive); in the experiment on Hs-578T, 26.3 µM (inactive); in the experiment on MDA-MB-231 it was 22.6 µM (inactive); with NCI-H23, 21.4 µM (inactive); with BT-549, 20.4 µM (inactive); with MDA-N, 21 µM (inactive). For the same compound, the GI50 in the experiment on IGROV-1 is 19.9 µM (inactive); with A498, 24.7 µM (inactive); with NCI/ADR-RES, 23.8 µM (inactive); with OVCAR-5, 41 µM (inactive); in the experiment with MCF7, 28.1 µM (inactive); in the experiment with UACC-257, 20.9 µM (inactive). Further, the GI50 is 28.1 µM (inactive) with T47D; 26.9 µM (inactive) in the experiment with RXF 393; 18.8 µM (inactive) in the experiment with EKVX; 31.9 µM (inactive) in the experiment with CCRF-CEM; 33.1 µM (inactive) with SR; 18.6 µM (inactive) with U-251. In addition, in the experiment with HOP-62, the GI50 was 25.8 µM (inactive).
For the compound `N#Cc1ccc(C2ON=C(c3ccccc3)N2C23CC4CC(CC(C4)C2)C3)cc1` (stereo not given), the GI50 was > 10 µM (inactive) in the experiment on LOX IMVI; > 10 µM (inactive) in the experiment with Hs-578T; > 10 µM (inactive) with MDA-MB-231; > 10 µM (inactive) in the experiment with NCI-H23; 5.66 µM (inactive) in the experiment with BT-549; > 10 µM (inactive) with MDA-N. Besides, the GI50 with IGROV-1 was > 10 µM (inactive); in the experiment with A498 it was > 10 µM (inactive); in the experiment with NCI/ADR-RES it was 0.00536 µM (active); in the experiment with OVCAR-5, > 10 µM (inactive); with MCF7, > 10 µM (inactive); in the experiment with UACC-257, > 10 µM (inactive). Also, the GI50 in the experiment on T47D is > 10 µM (inactive); in the experiment on RXF 393, > 10 µM (inactive); in the experiment with EKVX, > 10 µM (inactive); in the experiment on CCRF-CEM, > 10 µM (inactive); in the experiment with SR, 3.85 µM (inactive); in the experiment with U-251, > 10 µM (inactive). Besides, the GI50 with HOP-62 is > 10 µM (inactive).
In the case of `Nc1nc(N)c2cc(-c3ccccc3)cnc2n1`, the GI50 with LOX IMVI was 12.4 µM (inactive); in the experiment with Hs-578T it was 20.2 µM (inactive); in the experiment on MDA-MB-231, 7.89 µM (inactive); in the experiment with NCI-H23, 12.9 µM (inactive); in the experiment with BT-549, 16.6 µM (inactive); with MDA-N, 9.86 µM (inactive). In addition, the GI50 with IGROV-1 was 12.9 µM (inactive); in the experiment with A498, 14.9 µM (inactive); with NCI/ADR-RES, 24.4 µM (inactive); in the experiment on OVCAR-5 it was 14.6 µM (inactive); with MCF7, 16.3 µM (inactive); in the experiment on UACC-257, 14.2 µM (inactive). Further, the GI50 with T47D is 36.8 µM (inactive); with RXF 393, 8.65 µM (inactive); in the experiment on EKVX, 16.9 µM (inactive); with CCRF-CEM, 20.1 µM (inactive); in the experiment with SR, 6.18 µM (inactive); in the experiment on U-251, 15.1 µM (inactive). In addition, the GI50 in the experiment with HOP-62 is 17 µM (inactive).
Turning to `CC1(C)C(CC(=O)O)CCCC1CC(=O)O` (stereo not given), the GI50 in the experiment with LOX IMVI, in the experiment with Hs-578T, in the experiment on MDA-MB-231, in the experiment with NCI-H23, in the experiment on BT-549 and in the experiment with MDA-N was > 100 µM (inactive) each time. In addition, the GI50 in the experiment with IGROV-1, in the experiment on A498, with NCI/ADR-RES, in the experiment with OVCAR-5, with MCF7 and with UACC-257 was > 100 µM (inactive) in each case. The GI50 with T47D, in the experiment on RXF 393, in the experiment with EKVX, with CCRF-CEM, with SR and with U-251 was > 100 µM (inactive) in each case. For the same compound, the GI50 with HOP-62 was > 100 µM (inactive).
For the compound `CC1=CC23C(COC(=O)C24CO4)C(C(=O)O)=CC3C1C` (stereo not given), the GI50 with LOX IMVI was 17 µM (inactive); in the experiment with Hs-578T it was 2.78 µM (inactive); in the experiment with MDA-MB-231, 10.9 µM (inactive); with NCI-H23 it was 27.1 µM (inactive); with BT-549 it was 4.9 µM (inactive); in the experiment on MDA-N it was 24 µM (inactive). In addition, the GI50 with IGROV-1 is 24.1 µM (inactive); in the experiment with A498 it was 23.3 µM (inactive); with NCI/ADR-RES, 15.3 µM (inactive); in the experiment with OVCAR-5 it was 24.4 µM (inactive); with MCF7, 35.6 µM (inactive); in the experiment with UACC-257, 29 µM (inactive). For the same compound, the GI50 with T47D is 6.21 µM (inactive); in the experiment on RXF 393, 3.55 µM (inactive); with EKVX, 40.4 µM (inactive); in the experiment with CCRF-CEM, 5.86 µM (inactive); with SR, 17.1 µM (inactive); in the experiment on U-251 it was 11.5 µM (inactive). The GI50 in the experiment with HOP-62 was 14.1 µM (inactive).
Consider `CC(=O)O[C@H]1C(=O)[C@@]2(C)[C@H]([C@H](OC(=O)C3CCCCC3)[C@]3(O)C[C@H](OC(=O)[C@H](O)[C@@H](NC(=O)C4CCCCC4)C4CCCCC4)C(C)=C1C3(C)C)[C@]1(OC(C)=O)CO[C@@H]1C[C@@H]2O`, for which the GI50 in the experiment on LOX IMVI is 0.0272 µM (active); with Hs-578T it was 0.00962 µM (active); with MDA-MB-231 it was 0.0336 µM (active); in the experiment on NCI-H23, < 0.0132 µM (active); in the experiment on BT-549, 0.0556 µM (active); with MDA-N, 0.0025 µM (active). Also, the GI50 was 0.027 µM (active) in the experiment on IGROV-1; 0.0902 µM (active) in the experiment with A498; 1.07 µM (active) with NCI/ADR-RES; 0.0224 µM (active) in the experiment on OVCAR-5; 0.00569 µM (active) in the experiment on MCF7; 0.0389 µM (active) in the experiment on UACC-257. In addition, the GI50 with T47D is 0.0219 µM (active); in the experiment on RXF 393, 0.0407 µM (active); in the experiment with EKVX, 5.61 µM (inactive); in the experiment on CCRF-CEM it was 0.0234 µM (active); in the experiment on SR, 0.0082 µM (active); in the experiment on U-251 it was 0.0117 µM (active). Also, in the experiment on HOP-62, the GI50 was 0.0222 µM (active).
